Among the data in the supplement of paper PMC10307832 are relative viability values, retold here.

Assay in all cases: relative viability (nuclei count vs DMSO), 5 days (fraction); higher = more cells survive
Compound in the assay “Sunitinib + OSI-027”: CCN(CC)CCNC(=O)c1c(C)[nH]c(/C=C2\C(=O)Nc3ccc(F)cc32)c1C [Sunitinib] + COc1cccc2cc(-c3nc([C@H]4CC[C@H](C(=O)O)CC4)n4ncnc(N)c34)[nH]c12 [OSI-027] (partner 0.5 µM)
The essentials:
(§1)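 Relative viability divides the nuclei count in treated wells by that in vehicle wells. Lung cancer cell lines were seeded in 1536-well plates, dosed by pin tool the next day, and fixed and stained after 5 days in one step with final 0.05% Triton X-100, 1% formaldehyde and 1 ug/ml Hoechst. Dosing was a single drug or a fixed anchor-drug dose plus five library-drug doses (not always all listed) in √10 steps, and values are medians of duplicate plates imaged at 4×.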

Compound in the assay “Sunitinib + Crizotinib”: CCN(CC)CCNC(=O)c1c(C)[nH]c(/C=C2\C(=O)Nc3ccc(F)cc32)c1C [Sunitinib] + C[C@@H](Oc1cc(-c2cnn(C3CCNCC3)c2)cnc1N)c1c(Cl)ccc(F)c1Cl [Crizotinib] (partner 1 µM)
The essentials: as §1

Compound in the assay “Sunitinib + Linsitinib”: CCN(CC)CCNC(=O)c1c(C)[nH]c(/C=C2\C(=O)Nc3ccc(F)cc32)c1C [Sunitinib] + C[C@]1(O)C[C@@H](c2nc(-c3ccc4ccc(-c5ccccc5)nc4c3)c3c(N)nccn32)C1 [Linsitinib] (partner 1 µM)
Summed up:
as §1

Compound in the assay “Sunitinib + Tozasertib”: CCN(CC)CCNC(=O)c1c(C)[nH]c(/C=C2\C(=O)Nc3ccc(F)cc32)c1C [Sunitinib] + Cc1cc(Nc2cc(N3CCN(C)CC3)nc(Sc3ccc(NC(=O)C4CC4)cc3)n2)n[nH]1 [Tozasertib] (partner 0.1 µM)
The essentials:
as §1

NCI-H322M: the relative viability came out at 0.53 with Sunitinib + OSI-027 (first compound 0.02 µM); 0.582 in the assay with Sunitinib + OSI-027 (first compound 0.06325 µM); 0.656 in the assay with Sunitinib + OSI-027 (first compound 0.2 µM); 0.624 in the assay with Sunitinib + OSI-027 (first compound 0.6325 µM); 0.549 with Sunitinib + OSI-027 (first compound 2 µM); 0.845 with Sunitinib + Crizotinib (first compound 0.02 µM). The relative viability with Sunitinib + Crizotinib (first compound 0.06325 µM) came out at 0.891; with Sunitinib + Crizotinib (first compound 0.2 µM) it was 0.951; with Sunitinib + Crizotinib (first compound 0.6325 µM), 0.891; with Sunitinib + Crizotinib (first compound 2 µM) it was 1.08; with Sunitinib + Linsitinib (first compound 0.02 µM), 0.871; with Sunitinib + Linsitinib (first compound 0.06325 µM), 0.969. Further, the relative viability in the assay with Sunitinib + Linsitinib (first compound 0.2 µM) came to 0.985; with Sunitinib + Linsitinib (first compound 0.6325 µM), 0.942; with Sunitinib + Linsitinib (first compound 2 µM) it was 0.754; in the assay with Sunitinib + Tozasertib (first compound 0.02 µM), 0.452; with Sunitinib + Tozasertib (first compound 0.06325 µM) it was 0.464; with Sunitinib + Tozasertib (first compound 0.2 µM), 0.546. Further, the figures for the relative viability with Sunitinib + Tozasertib (first compound 0.6325 µM) and with Sunitinib + Tozasertib (first compound 2 µM) were 0.547 and 0.42, respectively.
Consider NCI-H2347, for which the relative viability in the assay with Sunitinib + OSI-027 (first compound 0.02 µM) was found to be 0.451; with Sunitinib + OSI-027 (first compound 0.06325 µM), 0.507; in the assay with Sunitinib + OSI-027 (first compound 0.2 µM), 0.67; with Sunitinib + OSI-027 (first compound 0.6325 µM), 0.384; with Sunitinib + OSI-027 (first compound 2 µM), 0.552; with Sunitinib + Crizotinib (first compound 0.02 µM) it was 0.665. Also, the relative viability is 0.795 with Sunitinib + Crizotinib (first compound 0.06325 µM); 0.731 with Sunitinib + Crizotinib (first compound 0.6325 µM); 0.822 with Sunitinib + Crizotinib (first compound 2 µM); 0.93 with Sunitinib + Linsitinib (first compound 0.02 µM); 0.991 with Sunitinib + Linsitinib (first compound 0.06325 µM); 1.11 with Sunitinib + Linsitinib (first compound 0.2 µM). Further, the relative viability worked out at 0.991 with Sunitinib + Linsitinib (first compound 0.6325 µM); 0.978 with Sunitinib + Linsitinib (first compound 2 µM); 0.599 in the assay with Sunitinib + Tozasertib (first compound 0.02 µM); 0.481 in the assay with Sunitinib + Tozasertib (first compound 0.06325 µM); 0.59 in the assay with Sunitinib + Tozasertib (first compound 0.2 µM); 0.607 with Sunitinib + Tozasertib (first compound 0.6325 µM). In the assay with Sunitinib + Tozasertib (first compound 2 µM), the relative viability worked out at 0.523.
Consider HOP-62, for which the relative viability with Sunitinib + OSI-027 (first compound 0.02 µM) turned out to be 0.763; with Sunitinib + OSI-027 (first compound 0.06325 µM), 1.01; with Sunitinib + OSI-027 (first compound 0.6325 µM), 0.977; with Sunitinib + OSI-027 (first compound 2 µM), 0.995; in the assay with Sunitinib + Crizotinib (first compound 0.02 µM), 0.862; with Sunitinib + Crizotinib (first compound 0.06325 µM) it was 1.23. Also, the relative viability was determined as 0.971 with Sunitinib + Crizotinib (first compound 0.2 µM); 1.03 with Sunitinib + Crizotinib (first compound 2 µM); 0.968 with Sunitinib + Linsitinib (first compound 0.02 µM); 1.23 in the assay with Sunitinib + Linsitinib (first compound 0.06325 µM); 1.18 in the assay with Sunitinib + Linsitinib (first compound 0.2 µM); 1.1 in the assay with Sunitinib + Linsitinib (first compound 0.6325 µM). The relative viability with Sunitinib + Linsitinib (first compound 2 µM) was determined as 1.11; in the assay with Sunitinib + Tozasertib (first compound 0.02 µM) it was 0.351; with Sunitinib + Tozasertib (first compound 0.06325 µM), 0.352; with Sunitinib + Tozasertib (first compound 0.2 µM), 0.383; with Sunitinib + Tozasertib (first compound 0.6325 µM), 0.431; with Sunitinib + Tozasertib (first compound 2 µM), 0.397.
On to NCI-H520, for which the relative viability turned out to be 0.249 in the assay with Sunitinib + OSI-027 (first compound 0.02 µM); 0.286 in the assay with Sunitinib + OSI-027 (first compound 0.06325 µM); 0.321 in the assay with Sunitinib + OSI-027 (first compound 0.2 µM); 0.292 in the assay with Sunitinib + OSI-027 (first compound 0.6325 µM); 0.3 in the assay with Sunitinib + OSI-027 (first compound 2 µM); 0.83 in the assay with Sunitinib + Crizotinib (first compound 0.02 µM). The relative viability in the assay with Sunitinib + Crizotinib (first compound 0.06325 µM) stood at 0.699; in the assay with Sunitinib + Crizotinib (first compound 0.2 µM), 0.856; with Sunitinib + Crizotinib (first compound 0.6325 µM), 0.63; in the assay with Sunitinib + Crizotinib (first compound 2 µM), 0.601; with Sunitinib + Linsitinib (first compound 0.02 µM), 0.86; with Sunitinib + Linsitinib (first compound 0.06325 µM), 1.15. Further, the relative viability with Sunitinib + Linsitinib (first compound 0.2 µM) is 0.911; with Sunitinib + Linsitinib (first compound 0.6325 µM), 0.975; with Sunitinib + Linsitinib (first compound 2 µM) it was 1.01; with Sunitinib + Tozasertib (first compound 0.02 µM), 0.44; in the assay with Sunitinib + Tozasertib (first compound 0.06325 µM), 0.384; with Sunitinib + Tozasertib (first compound 0.2 µM) it was 0.435. Further, the relative viability with Sunitinib + Tozasertib (first compound 0.6325 µM) was 0.375; with Sunitinib + Tozasertib (first compound 2 µM) it was 0.421.
Take HCC-78: the relative viability in the assay with Sunitinib + OSI-027 (first compound 0.02 µM) came to 0.352; in the assay with Sunitinib + OSI-027 (first compound 0.06325 µM), 0.397; with Sunitinib + OSI-027 (first compound 0.2 µM) it was 0.377; with Sunitinib + OSI-027 (first compound 0.6325 µM), 0.379; with Sunitinib + OSI-027 (first compound 2 µM), 0.411; with Sunitinib + Crizotinib (first compound 0.02 µM), 0.299. Besides, the relative viability with Sunitinib + Crizotinib (first compound 0.2 µM) was determined as 0.348; in the assay with Sunitinib + Crizotinib (first compound 2 µM), 0.365; with Sunitinib + Linsitinib (first compound 0.02 µM), 0.472; with Sunitinib + Linsitinib (first compound 0.2 µM), 0.501; with Sunitinib + Linsitinib (first compound 2 µM) it was 0.565; in the assay with Sunitinib + Tozasertib (first compound 0.02 µM) it was 0.411. The relative viability with Sunitinib + Tozasertib (first compound 0.06325 µM) turned out to be 0.502; with Sunitinib + Tozasertib (first compound 0.2 µM), 0.548; in the assay with Sunitinib + Tozasertib (first compound 0.6325 µM), 1.43; with Sunitinib + Tozasertib (first compound 2 µM), 0.43.
